The subject of experiment [1] is IL-1β secretion from human whole blood. Put plainly: Inhibition of IL-1β secretion from whole blood. The experiment is classed as cell-based. Particulars: human whole blood diluted 1:2, LPS 5 ng/ml, 18 hours, ELISA. How it is done: Human blood is freshly drawn from healthy donors and diluted 1:2 in PBS. To 500 μl of diluted blood […] of prediluted test compound in RPMI medium and […] LPS (5 ng/ml final concentration on the plate) are added (LPS, Serotype 0111:B4, Sigma L3012). After stimulation for 18 hours supernatants are collected and assayed for IL-1β levels using the appropriate ELISA kit (R&D systems).

The test system of experiment [2] is rat cortical neurons. Put plainly: Hypoxia-induced apoptosis of rat cortical neurons. It is filed as cell-based, Wistar rat. Particulars: Cortical neurone, 95% N2/5% CO2, Cell Death Detection ELISA (DNA fragmentation). The procedure: Cortical neurons are dissociated from Wistar rat embryos (E17) by a modification of the procedure of Rogers et al. 1997, Brain Res. Bulletin, 44:131. Briefly, cerebral cortices are isolated aseptically from 15-20 Wistar rat embryos. A cell suspension is prepared by mincing the cerebral cortices and digesting them with papain. Cells are washed with ovomucoid enzyme inhibitor and DNaseI and plated onto Poly-D lysine coated plates in high glucose DMEM containing 10% heat-inactivated fetal calf serum, L-glutamine, penicillin and streptomycin. The yield of neurons is […] per embryo and they are 80-90% viable as assessed by Trypan blue exclusion.
The neurons are cultured in complete medium at 37° C. in a normal atmosphere for 48 hours prior to the hypoxia experiments. For hypoxia, the normal cell medium is replaced by oxygen-depleted serum-free medium. Cells are incubated in an atmosphere of 95% N2/5% CO2 for various lengths of time. Compounds are dissolved in DMSO at 100 mM then diluted in medium and added to the culture from time=0. The level of apoptosis is measured using a Cell Death Detection ELISA kit (Roche) which detects DNA fragmentation. Plates are read at 405 nm. Controls included cells cultured in aerobic conditions in serum-containing medium (+serum) and cells cultured in aerobic conditions in serum-deprived medium (−serum).

In experiment [3] the test system is Jurkat E6.1 cells. The experiment can be described thus: Anti-Fas induced apoptosis assay. Particulars: Homo sapiens, anti-Fas antibody CH-11 10 ng/ml, 16-18 hrs, DNA fragmentation. The experiment is classed as cell-based. The text has this:
Cellular apoptosis may be induced by the binding of Fas ligand (FasL) to its receptor, CD95 (Fas). CD95 is one of a family of related receptors, known as death receptors, which can trigger apoptosis in cells via activation of the caspase enzyme cascade. The process is initiated by the binding of the adapter molecule FADD/MORT-1 to the cytoplasmic domain of the CD-95 receptor-ligand complex. Caspase-8 then binds FADD and becomes activated, initiating a cascade of events that involve the activation of downstream caspases and subsequent cellular apoptosis. Apoptosis can also be induced in cells expressing CD95 e.g., the Jurkat E6.1 T cell lymphoma cell line, using an antibody, rather than FasL, to crosslink the cell surface CD95. Anti-Fas-induced apoptosis is also triggered via the activation of caspase-8. This provides the basis of a cell based assay to screen compounds for inhibition of the caspase-8-mediated apoptotic pathway.
Jurkat E6.1 cells are cultured in complete medium consisting of RPMI-1640 (Sigma No)+10% foetal calf serum (Gibco BRL No. 10099-141)+2 mM L-glutamine (Sigma No. G-7513). The cells are harvested in log phase of growth. 100 ml of cells at 5-8×10^5 cells/ml are transferred to sterile 50 ml Falcon centrifuge tubes and centrifuged for 5 minutes at 100×g at room temperature. The supernatant is removed and the combined cell pellets resuspended in 25 ml of complete medium. The cells are counted and the density adjusted to 2×10^6 cells/ml with complete medium.
The test compound is dissolved in dimethyl sulfoxide (DMSO)(Sigma No. D-2650) to give a 100 mM stock solution. This is diluted to 400 μM in complete medium, then serially diluted in a 96-well plate prior to addition to the cell assay plate.
100 μl of the cell suspension ([…]) is added to each well of a sterile 96-well round-bottomed cluster plate (Costar No. 3790). 50 μl of compound solution at the appropriate dilution and 50 μl of anti-Fas antibody, clone CH-11 (Upstate, Cat No. 1 544 675) at a final concentration of 10 ng/ml, are added to the wells. Control wells are set up minus antibody and minus compound but with a serial dilution of DMSO as vehicle control. The plates are incubated for 16-18 hrs at 37° C. in 5% CO2 and 95% humidity.
Apoptosis of the cells is measured by the quantitation of DNA fragmentation using a ‘Cell Death Detection Assay’ from Roche diagnostics, No. 1544 675. After incubation for 16-18 hrs the assay plates are centrifuged at 100×g at room temperature for 5 minutes. 150 μl of the supernatant are removed and replaced by 150 μl of fresh complete medium. The cells are then harvested and 200 μl of the lysis buffer supplied in the assay kit are added to each well. The cells are triturated to ensure complete lysis and incubated for 30 minutes at 4° C. The plates are then centrifuged at 1900×g for 10 minutes and the supernatants diluted 1:20 in the incubation buffer provided. 100 μl of this solution is then assayed according to the manufacturer's instructions supplied with the kit. OD405 nm is measured 20 minutes after addition of the final substrate in a SPECTRAmax Plus plate reader (Molecular Devices). OD405 nm is plotted versus compound concentration and the IC50 values for the compounds are calculated using the curve-fitting program SOFTmax Pro (Molecular Devices) using the four parameter fit option.

`CCCC(=O)Nc1cccn([C@@H](CC)C(=O)N[C@@H](CC(=O)O)C(=O)COc2c(F)c(F)cc(F)c2F)c1=O` [Compound 3, (S,S)-3-[2-(3-Butyrylamino-2-oxo-2H-pyridin-1-yl)-butyrylamino]-4-oxo-5-(2,3,5,6-tetrafluoro-phenoxy)-pentanoic acid]: the figures for the concentration for half-maximal inhibition (IC50) in experiment [1] and in experiment [2] were less than 500 nM and 1000 to 10000 nM, respectively.

For the compound `CC[C@@H](C(=O)N[C@@H](CC(=O)O)C(=O)COc1c(F)c(F)cc(F)c1F)n1cccc(NC(=O)COC)c1=O` [Compound 6, (S,S)-3-{2-[3-(2-Methoxy-acetylamino)-2-oxo-2H-pyridin-1-yl]-butyrylamino}-4-oxo-5-(2,3,5,6-tetrafluoro-phenoxy)-pentanoic acid], the figures for the half-inhibitory concentration (IC50) in experiment [1] and in experiment [2] were 500 to 5000 nM and 1000 to 10000 nM, respectively.

In the case of `CC[C@@H](C(=O)N[C@@H](CC(=O)O)C(=O)COc1c(F)c(F)cc(F)c1F)n1cccc(NC(=O)c2ccoc2)c1=O` [Compound 8, (S,S)-3-(2-{3-[(Furan-3-carbonyl)-amino]-2-oxo-2H-pyridin-1-yl}-butyrylamino)-4-oxo-5-(2,3,5,6-tetrafluoro-phenoxy)-pentanoic acid], the values for the IC50 in experiment [1] and in experiment [2] were 500 to 5000 nM and 1000 to 10000 nM, respectively.

For `CC[C@@H](C(=O)N[C@@H](CC(=O)O)C(=O)COc1c(F)c(F)cc(F)c1F)n1cccc(NC(=O)c2cccnc2)c1=O` [Compound 9, (S,S)-4-Oxo-3-(2-{2-oxo-3-[(pyridine-3-carbonyl)-amino]-2H-pyridin-1-yl}-butyrylamino)-5-(2,3,5,6-tetrafluoro-phenoxy)-pentanoic acid], the IC50 (in general, the concentration at which inhibition is half-maximal) in experiment [1] lay within 500 to 5000 nM; in experiment [2], 1000 to 10000 nM.

For the compound `CC[C@@H](C(=O)N[C@@H](CC(=O)O)C(=O)COc1c(F)c(F)cc(F)c1F)n1cccc(NC(=O)c2ccsn2)c1=O` [Compound 10, (S,S)-3-(2-{3-[(Isothiazole-3-carbonyl)-amino]-2-oxo-2H-pyridin-1-yl}-butyrylamino)-4-oxo-5-(2,3,5,6-tetrafluorophenoxy)-pentanoic acid], the IC50 in experiment [1] was less than 500 nM; in experiment [2] it was less than 1000 nM.

With `CC[C@@H](C(=O)N[C@@H](CC(=O)O)C(=O)COc1c(F)c(F)cc(F)c1F)n1cccc(NC(=O)Cc2ccccc2)c1=O` [Compound 12, (S,S)-4-Oxo-3-[2-(2-oxo-3-phenylacetylamino-2H-pyridin-1-yl)-butyrylamino]-5-(2,3,5,6-tetrafluoro-phenoxy)-pentanoic acid], the IC50 in experiment [1] is 500 to 5000 nM; in experiment [2], less than 1000 nM.

Regarding `CCNC(=O)Nc1cccn([C@@H](CC)C(=O)N[C@@H](CC(=O)O)C(=O)COc2c(F)c(F)cc(F)c2F)c1=O` [Compound 14, (S,S)-3-{2-[3-(3-Ethyl-ureido)-2-oxo-2H-pyridin-1-yl]-butyrylamino}-4-oxo-5-(2,3,5,6-tetrafluoro-phenoxy)-pentanoic acid], the IC50 in experiment [1] was less than 500 nM; in experiment [2] it was 1000 to 10000 nM.

In the case of `CC[C@@H](C(=O)N[C@@H](CC(=O)O)C(=O)COc1c(F)c(F)cc(F)c1F)n1cccc(NC(=O)N(CC)CC)c1=O` [Compound 15, (S,S)-3-{2-[3-(3,3-Diethyl-ureido)-2-oxo-2H-pyridin-1-yl]-butyrylamino}-4-oxo-5-(2,3,5,6-tetrafluoro-phenoxy)-pentanoic acid], the IC50 in experiment [1] is 500 to 5000 nM; in experiment [2], less than 1000 nM.

Consider `CC[C@@H](C(=O)N[C@@H](CC(=O)O)C(=O)COc1c(F)c(F)cc(F)c1F)n1cccc(NC(=O)N2CCCC2)c1=O` [Compound 16, (S,S)-4-Oxo-3-(2-{2-oxo-3-[(pyrrolidine-1-carbonyl)-amino]-2H-pyridin-1-yl}-butyrylamino)-5-(2,3,5,6-tetrafluoro-phenoxy)-pentanoic acid], for which the IC50 in experiment [1] fell in the range of 500 to 5000 nM; in experiment [2] it was 1000 to 10000 nM.

As to `CC[C@@H](C(=O)N[C@@H](CC(=O)O)C(=O)COc1c(F)c(F)cc(F)c1F)n1cccc(NS(=O)(=O)C(C)C)c1=O` [Compound 20, (S,S)-4-Oxo-3-{2-[2-oxo-3-(propane-2-sulfonylamino)-2H-pyridin-1-yl]-butyrylamino}-5-(2,3,5,6-tetrafluoro-phenoxy)-pentanoic acid], the 50% inhibitory concentration (IC50) in experiment [1] is 500 to 5000 nM; in experiment [2] it was less than 1000 nM.

In the case of `CC[C@@H](C(=O)N[C@@H](CC(=O)O)C(=O)COc1c(F)c(F)cc(F)c1F)n1cccc(NS(=O)(=O)c2ccccc2)c1=O` [Compound 21, (S,S)-3-[2-(3-Benzenesulfonylamino-2-oxo-2H-pyridin-1-yl)-butyrylamino]-4-oxo-5-(2,3,5,6-tetrafluoro-phenoxy)-pentanoic acid], the results for the IC50 in experiment [1] and in experiment [2] were 500 to 5000 nM and 1000 to 10000 nM, respectively.

Consider `CC(C)[C@@H](C(=O)N[C@@H](CC(=O)O)C(=O)COc1c(F)c(F)cc(F)c1F)n1cccc(NC(=O)Cc2ccccc2)c1=O` [Compound 23, (S,S)-3-[3-Methyl-2-(2-oxo-3-phenylacetylamino-2H-pyridin-1-yl)-butyrylamino]-4-oxo-5-(2,3,5,6-tetrafluoro-phenoxy)-pentanoic acid], for which, in experiment [1], the concentration for half-maximal inhibition (IC50) was in the range of 500 to 5000 nM.

`CCS(=O)(=O)Nc1cccn([C@H](C(=O)N[C@@H](CC(=O)O)C(=O)COc2c(F)c(F)cc(F)c2F)C(C)C)c1=O` [Compound 24, (S,S)-3-[2-(3-Ethanesulfonylamino-2-oxo-2H-pyridin-1-yl)-3-methyl-butyrylamino]-4-oxo-5-(2,3,5,6-tetrafluoro-phenoxy)-pentanoic acid] returned an IC50 in experiment [2] of 1000 to 10000 nM.

As to `CCC(=O)Nc1cccn([C@@H](C)C(=O)NC(CC(=O)O)C(=O)CF)c1=O` (stereo partly drawn) [Compound 25, (S)-5-Fluoro-4-oxo-3-[2-(2-oxo-3-propionylamino-2H-pyridin-1-yl)-propionylamino]-pentanoic acid], the half-maximal inhibitory concentration (IC50) in experiment [3] was less than 500 nM.

For `C[C@@H](C(=O)NC(CC(=O)O)C(=O)CF)n1cccc(NC(=O)c2ccccc2)c1=O` (stereo partly drawn) [Compound 26, (S)-3-[2-(3-Benzoylamino-2-oxo-2H-pyridin-1-yl)-propionylamino]-5-fluoro-4-oxo-pentanoic acid], the concentration for half-maximal inhibition (IC50) in experiment [3] fell in the range of 500 to 2000 nM.

As to `CC[C@@H](C(=O)N[C@@H](CC(=O)O)C(=O)COc1c(F)c(F)cc(F)c1F)n1cccc(Nc2nccs2)c1=O` [Compound 38, (S,S)-4-Oxo-3-{2-[2-oxo-3-(thiazol-2-ylamino)-2H-pyridin-1-yl]-butyrylamino}-5-(2,3,5,6-tetrafluoro-phenoxy)-pentanoic acid], the IC50 in experiment [1] was 500 to 5000 nM; in experiment [2] it was less than 1000 nM.

Consider `CCCNc1cccn([C@@H](CC)C(=O)N[C@@H](CC(=O)O)C(=O)COc2c(F)c(F)cc(F)c2F)c1=O` [Compound 39, (S,S)-4-Oxo-3-[2-(2-oxo-3-propylamino-2H-pyridin-1-yl)-butyrylamino]-5-(2,3,5,6-tetrafluoro-phenoxy)-pentanoic acid], for which the concentration for half-maximal inhibition (IC50) in experiment [1] was 500 to 5000 nM; in experiment [2], less than 1000 nM.

These data come from patent US7960415B2, “Caspase inhibitors and uses thereof” (Vertex Pharmaceutical Incoporated, priority 2003, dated 2011).
